Experiments:
wheat [1] = assay: Wheat germination test (cigar roll method) in aqueous DBDTP; assay type: in vivo; conditions: wheat seeds in germination paper rolls, 7 days, compared to the 0 mg/L control; 41.2 μM-1.03 mM
Experimental: Wheat: For germination tests, 50 wheat seeds were placed within a roll of germination paper using the cigar roll method (Bai C, 2013, J Exp Bot, 64:1745-1753) with n=50. Rolls were placed upright in tubs containing varying concentrations of DBDTP in water, such that the end of the roll was submerged 3″ into the solution. Lids were placed on tubs, then shoot and root length measurements were recorded after 7 days.

pea [2] = assay: Pea germination test (cigar roll method) in aqueous DBDTP; assay type: in vivo; conditions: at all levels of DBDTP tested, 7 days
Experimental: Pea: For germination tests, 25 pea seeds were placed within each roll of germination paper using the cigar method described above. Measurements were recorded after 7 days with n=250.

wheat [3] = assay: Greenhouse trial, wheat with slow-release fertilizer and aqueous delivery of DBDTP; assay type: in vivo; conditions: 5 and 25 mg/pot DBDTP in 200 mL water, in the presence of fertilizer (Osmocote), 4 weeks after planting
Experimental: (§1) All greenhouse experiments took place under a 16-hour photoperiod with temperatures set to 22° C. day and 18° C. night.
Wheat: To test whether the germination test growth enhancement response observed in wheat would still occur in the presence of added nitrogen fertilizer, wheat was grown under varying levels of slow-release fertilizer (Osmocote) and then watered in with an aqueous solution of DBDTP (see Carter J M, et al., 2019, J. Agric Food Chem. 67:11883-11892). Osmocote was added to potting soil according to the label to achieve low or medium fertilization rates. Prior to planting, pots were watered and seed was sown into moist potting soil. Immediately after planting, each pot was watered with 200 mL water containing, 0, 5, 25, 50, 100, or 500 mg dissolved DBDTP. Pots were not watered for ~5 days after planting to avoid flushing DBDTP out of the pot.

pea [4] = assay: Greenhouse trial, pea with aqueous delivery of DBDTP; assay type: in vivo; conditions: 4 weeks after planting
Experimental: as §1
Pea: Prior to planting, pots were watered and seed was sown into moist potting soil. Immediately after planting, each pot was watered with 200 mL water containing, 0, 5, 25, 50, 100, or 500 mg dissolved DBDTP. Pots were not watered for ~5 days after planting to avoid flushing DBDTP out of the pot.

wheat [5] = assay: Greenhouse comparison of wheat growth after 25 mM seed treatments of three dithiophosphates; assay type: in vivo; conditions: 25 mM seed treatment in diluted SPRET, 7% w/v, 21 days after planting
Experimental: as §1
Dithiophosphates have different chemical properties depending on the length of their chains. For instance, the length of the carbon chain influences solubility of the chemical and the rate of H2S release. Growth of wheat when treated with 25 mM seed treatments of three different DTPs: dibutyldithiophosphate (C4), dioctyldithiophosphate (C8), and dihexyldecycldithiophosphate (C16) was evaluated. Chemical amount per seed used in 25 mM seed treatment applications is described in Table 1. Seed was treated with a 25 mM solution in which the DTP was dissolved in a low concentration of SPRET non-ionic surfactant (Method 1 below). After seeds had dried, they were sown in moist potting soil at a rate of 4 seeds per pot and then not watered for 5 days. There were 5 reps for each treatment where each rep was the average from a single pot. Measurements were collected 21 days after planting. Tiller number was improved for each of the three DTP treatments but was most improved with the dibutyl dithiophosphate (C4) source (FIG. 4).
(§2) Two seed treatment methods were examined: 1) Seed treated with DBDTP applied using a non-ionic surfactant and 2) Seed treated with DBDTP added to commonly used pesticide seed treatments (Example 8). For this testing, DBDTP was used as the dithiophosphate source. Note that the seed treatment concentration and volume is not standard across plant species. Each species tolerates a different level of DBDTP and the volume used to treat each species is dependent on seed size. After adding treatment to seed, seed was rolled for 5 minutes. Seed was then exposed to air and allowed to dry completely prior to planting.
(§3) For this method, the non-ionic wetter/spreader surfactant used for all treatments was SPRET (Helena Holding Company). The lowest recommended SPRET concentration was selected from the product label (1.25 mL/L H2O).

wheat [6] = assay: Greenhouse tests to identify ideal DBDTP seed treatment concentrations for wheat (SPRET surfactant); assay type: in vivo
Experimental: as §1, §2, §3
Greenhouse tests to identify ideal DBDTP seed treatment concentrations: A 7% w/v solution was used for each DBDTP treatment to achieve an even coating of wheat seeds. For each DBDTP level, small amounts of DBDTP were dissolved in the SPRET solution according to Table 2 and seed was treated with a 7% w/v solution. Five seeds were sown in 6″ pots and averaged for a single rep. Each DBDTP treatment had three replications.

MT Dagmar spring wheat = assay: Field trial of DBDTP treated wheat seed; assay type: in vivo
Experimental: Seed treatment levels consisted of 0, 12.5, 25, 50, and 100 mM DBDTP as in Table 2 and applied in a 7% w/v solution. All seed for each treatment (1000 g) was treated at one time and then once dried it was weighed out for planting in single rows. For each seed treatment level, 15 reps were planted using a complete, randomized block design. Each rep consisted of a 10′, 2 row plot. Plots were seeded at a rate of 10 g/row. Seed was tractor planted, and prior to planting, the field was worked, and N was delivered to achieve 390 Ibs urea/acre. […] The 12.5 mM and 25 mM seed treatments appear to be the best concentrations to boost grain yield as well, as these treatments yielded an average of 3.5-5% higher respectively than the 0 mM control (FIG. 7B). An ideal treatment range encompasses the 12.5 mM and 25 mM treatments and high end of ideal concentrations likely lies between the 25 mM and 50 mM treatments.

Provider bush beans = assay: Field trial of DBDTP treated green bean seed; assay type: in vivo
Experimental: Seed treatment levels consisted of 0, 175 mM, 350 mM, 700 mM, and 1.4 M DBDTP (Table 3) and seed was treated with a 5% w/v solution of diluted SPRET surfactant and DBDTP. For each seed treatment level, 15 reps were planted using a complete, randomized block design. Each rep consisted of a 3′, 2 row plot with 18 seeds planted per row. Entire plants were harvested at maturity and biomass was averaged for each row. Each row was considered a single rep. For each plot of treated seed, biomass was increased compared to the 0 mM control (FIG. 8A). […] Depending on whether the goal was to increase seed weight, or plant biomass, an ideal treatment range encompasses the 175 mM, 350 mM, and 700 mM treatments. These concentrations correspond to a range of 0.07-0.28 mg DBDTP/seed.

Avondale lentil = assay: Greenhouse test of DBDTP seed treatment concentration for lentil growth; assay type: in vivo
Experimental: Testing was carried out in the greenhouse. Seed was treated according to Table 4. Prior to planting, pots were watered and seed was sown into moist potting soil. Pots were not watered for 5 days after planting to avoid flushing DBDTP out of the pot. […] Seed was treated with a 1.5% w/v solution of diluted SPRET surfactant with addition of DBDTP. Early plant growth was boosted between treatment concentrations 0.188 M-1.7 M. A likely beneficial treatment range lies between 0.03-0.26 mg/seed.

Cherry Belle F1 radish = assay: Field trial of DBDTP treated radish seed; assay type: in vivo
Experimental: Seed treatment levels consisted of 0, 12.5, 25, 50, and 100 mM DBDTP (Table 5) and seed was treated with a 7% w/v solution of diluted SPRET surfactant and DBDTP. For each seed treatment level, 15 reps were planted using a complete, randomized block design. Each rep consisted of a single 3′ row plot. Plots were seeded at a rate of 36 seeds/row and thinned to 4-6″ apart. Root fresh weight was averaged for each row and each row was considered a single rep. Root biomass was increased compared to the control at the 12.5 mM treatment level (FIG. 10). This corresponded to 0.001 mg/seed. Radish root growth likely be enhanced with an application rate in a range of 0.001-0.005 mg DBDTP/seed.

MT 457 green field pea = assay: Field trial of DBDTP treated green field pea (with pesticide seed treatments); assay type: in vivo
Experimental: (§4) For this method, DBDTP amounts were combined with commonly used seed treatment pesticides using the recommended, crop-specific amount on the product label. The pesticides that were used include Obvius Plus Specimen fungicide seed treatment (BASF Corporation), Dyna-Shield imidacloprid 5 (Loveland Products), and Cruiser Maxx Vibrance Cereals (Syngenta). Pesticide amounts correspond to species-specific recommended amounts on the product label. After treatments were added to seeds, seed was rolled 5 minutes and allowed to dry completely.
Seed treatment levels consisted of 0, 52, 103, 207, and 413 mM DBDTP (Table 6). Seed was treated with a 1.7% w/v solution that included DBDTP and seed treatment pesticides Dyna-Shield and Obvius (Table 6). After seed was treated and dried, it was inoculated with N Charge Inoculant for Pea, Vetch, and Lentil (Verdesian; 1.40 g/450 g seed) and planted within the same day as inoculating. For each seed treatment level, 15 reps were planted using a complete, randomized block design. Each rep consisted of a 10′, 2 row plot with 60 seeds planted per row. Mature seed was harvested for each plot. […] Seed yield was increased under all treatment levels tested, in a range of 0.04-0.31 mg/seed.

chickpea = assay: Greenhouse test of DBDTP seed treatment concentration for chickpea growth (pesticide slurry); assay type: in vivo
Experimental: as §4
This test took place in the greenhouse. Seed was treated according to Table 7. Prior to planting, pots were watered and seed was sown into moist potting soil. Pots were not watered for 5 days after planting to avoid flushing DBDTP out of the pot. […] An ideal range likely falls between 0.05-0.46 mg DBDTP/seed.

wheat [7] = assay: Greenhouse test of DBDTP added to Cruiser Maxx Vibrance Cereals slurry for wheat; assay type: in vivo
Experimental: as §4
DBDTP was added to a slurry of Cruiser Maxx Vibrance Cereals according to Table 8. Prior to the addition of DBDTP, the pesticide was diluted 1:1 Cruiser:H2O. DBDTP was added to the diluted Cruiser, such that 2.1 mg DBDTP was added to 62.5 μL to treat 5 g of seed. This experiment was planted in the greenhouse, and at 14 days after planting, the 25 mM treated seed was taller and had more tillers than the 0 mM control (FIG. 13). This experiment was planted in two separate greenhouses-one where the lights had been recently replaced with new LED lights, and one where the old light system remained. […] The main difference observed between the lights was that growth was much enhanced under the new lights, boosting tillering overall. This means that tillering differences due to DBDTP treatment may be observed earlier under the new LED light system.

corn = conditions: addition to a commercial liquid starter fertilizer applied in furrow with the seeds; cited from earlier work
[8] = seed treatments of up to 50 mM DBDTP, 35 days after planting
[9] = 25 mM in Cruiser Maxx Vibrance Cereals slurry, 14 days after planting, vs 0 mM control

CCCCOP(=S)(S)OCCCC [DBDTP, dibutyl dithiophosphate]
DBDTP concentration range with positive growth response (shoot and root length) (wheat [1]): 10 to 250 mg/L | growth response of pea seedlings (pea [2]): positive growth response | tiller number (wheat [3]): boost to tiller number | growth response (pea vine length), best doses (pea [4]; 100 and 500 mg/pot DBDTP): greatest boost to growth | growth response (pea vine length) (pea [4]; each DBDTP treatment (5, 25, 50, 100, 500 mg/pot in 200 mL water)): positive response | tiller number (wheat [5]): most improved | germination (wheat [6]; seed treatment doses higher than 50 mM, 7% w/v in SPRET): reduce germination | plant height (wheat [6]; [8]): enhanced | tiller number (wheat [6]; [8]): enhanced | grain yield, average increase over the 0 mM control (MT Dagmar spring wheat; 12.5 mM seed treatment): 3.5% | grain yield, average increase over the 0 mM control (MT Dagmar spring wheat; 25 mM seed treatment): 5% | plant growth and yield (MT Dagmar spring wheat; 100 mM DBDTP seed treatment): significantly diminished | tiller number (MT Dagmar spring wheat; 12.5 and 25 mM seed treatment, 4 weeks after planting, vs 0 mM control): significantly higher | plant biomass (Provider bush beans; each plot of treated seed (175 mM, 350 mM, 700 mM, 1.4 M), harvested at maturity, vs 0 mM control): increased | seed pod weight (Provider bush beans; lowest level tested (175 mM), vs control): increased | Likely ideal DBDTP range, green bean (Provider bush beans; seed treatment, green bean): 0.07-0.28 mg/seed | growth response of lentil (Avondale lentil; around the 375 mM treatment level, 14 days after planting, 1.5% w/v SPRET): positive DBDTP growth response | Likely ideal (beneficial) DBDTP range, lentil (Avondale lentil; seed treatment, lentil): 0.03-0.26 mg/seed | root biomass (root fresh weight) (Cherry Belle F1 radish; 12.5 mM treatment level (0.001 mg/seed), vs control): increased | Likely ideal DBDTP range, radish (Cherry Belle F1 radish; seed treatment, radish): 0.001-0.005 mg/seed | seed yield, best treatment (MT 457 green field pea; 413 mM treated seed): highest yielding | seed yield (MT 457 green field pea; each plot of treated seed (52, 103, 207, 413 mM), with Dyna-Shield and Obvius, vs control): increased | Likely ideal DBDTP range, pea (range in which seed yield was increased) (MT 457 green field pea; seed treatment, pea): 0.04-0.31 mg/seed | growth response of chickpea (chickpea; 100 mM treatment level in pesticide slurry, 14 days after planting): positive DBDTP growth response | Likely ideal DBDTP range, chickpea (chickpea; seed treatment, chickpea): 0.05-0.46 mg/seed | plant height (wheat [7]; [9]): taller | tiller number (wheat [7]; [9]): more tillers | performance against control in both greenhouses (new LED lights, old light system) (wheat [7]; 25 mM treated seed): outperformed the control | corn yield (corn): increases corn yield

CCCCCCCCOP(=S)(S)OCCCCCCCC [dioctyldithiophosphate (C8), dioctyldithiophosphate]
tiller number (wheat [5]): improved

dihexyldecycldithiophosphate [dihexyldecycldithiophosphate (C16)]
tiller number (wheat [5]): improved

— patent US20260231951A1, “COATED SEEDS AND METHODS TO IMPROVE CROPS” (MONTANA STATE UNIVERSITY, priority 2023, published 2026)
